Laboratory results taken from patent publication US20090176817A1, “Method of Treatment of Diarrhea-Predominant Irritable Bowel Syndrome in a Subject” (priority 2005, published 2009).

Legend:
clinical [1] = settings: both, human, serum, Fraction Unbound in Serum
Protocol: The ex vivo protein binding of cilansetron and its 4-hydroxy metabolites has been measured in serum samples collected in a multiple-dose study in healthy and renally impaired male and female subjects, aged 33-74 years. […] Healthy subjects were matched to renally-impaired subjects with respect to age, weight, gender, and smoking status. All subjects received oral cilansetron 2 mg TID on Days 1 to 5, and a single dose on the morning of Day 6.

[2] = system: patients with malignant tumors; test: Study K.241.5017: cisplatin-induced nausea and vomiting; assay type: in vivo, human; settings: IV 8 mg TID
Protocol: The effect of cilansetron on nausea and vomiting has been studied in 2 clinical studies in cancer patients. Both studies were randomized, singleblind, positive-controlled, parallel-group, pilot studies in male and female patients with malignant tumors, to investigate the effect of cilansetron on cytostatic-induced nausea and vomiting. In both studies, patients were on their first cycle of chemotherapy and were being treated with cisplatin (275 mg/m2 as a single dose in Study S.24 1.2.10 1 and […] for 5 days in Study K.24 1 S O 17). Patients in Study S.24 1.2.10 1 were aged 40-74 years (ITT population=16) and patients in Study K.24 1 S O 17 were aged 39-74 years (ITT population=19). In both studies, patients were randomized to receive either […] or IV ondansetron 8 mg TID for 1 day (Study S.241.2.101) or 5 days (Study K.2415017), corresponding to the day(s) of their cisplatin administration. If nausea and vomiting were completely controlled on a treatment day, the second and/or third doses of cilansetron or ondansetron could be omitted on that day. The primary efficacy parameter in both studies was the combination of the occurrence of vomiting and the severity of nausea, with a responder being defined as a patient with no vomiting and not more than mild nausea during the treatment day(s). […]

healthy subjects = test: Study K.241.5009: esophageal visceral perception; assay type: in vivo, human; settings: mean (SD); for Pressure first producing esophageal pain / Pressure first producing esophageal sensation / Volume first producing esophageal pain / Volume first producing esophageal sensation: absolute value; for Pressure first producing esophageal pain, Differences from Placebo / Pressure first producing esophageal sensation, Differences from Placebo / Volume first producing esophageal pain, Differences from Placebo / Volume first producing esophageal sensation, Differences from Placebo: not significant
Protocol: The effect of cilansetron on esophageal visceral perception was evaluated in a randomized, double-blind, placebo-controlled, 3-way crossover study in 12 male healthy subjects (ITT population), aged 32-62 years. Subjects received placebo, cilansetron 4 mg, or cilansetron 8 mg administered orally TID for 7 days during each of the 3 periods, with a 7-day washout between periods. Esophageal distension tests were done one hour after administration of the second dose on Day 7 of each treatment. A manually inflated intraesophageal balloon was used to produce distensions (successive 1 mL increases, up to a sensation of […] pain or a maximum balloon volume of 20 mL). The primary efficacy parameter was the distension volume inducing esophageal pain. Secondary parameters were the distension volumes and pressures leading to first esophageal sensation. The pain threshold and other secondary parameters for each of the cilansetron doses was compared to placebo using a one-sided Dunnett t-test.

clinical [3] = settings: human, in vivo, 16 mg
Protocol: In a single-dose, crossover study conducted to evaluate the potential for a drug-drug interaction between liquid Maalox and cilansetron, 12 male and 12-female subjects (aged 19-39 years) received single doses of cilansetron 16 mg alone and cilansetron 16 mg+Maalox in a crossover fashion under fasted conditions. Blood samples for measurement of plasma cilansetron pharmacokinetics were collected up to 24 hours postdose following each treatment.
The effect of concomitantly administered antacid (liquid Maalox) on the pharmacokinetics of cilansetron has been evaluated in a single-dose, crossover study in 24 healthy, male and female subjects, aged 19 to 39 years. Subjects received the following two treatments during each of the study periods in a crossover fashion: a single oral dose of cilansetron 16 mg tablet (reference treatment); a single oral dose of cilansetron 16 mg tablet+20 mL oral Maalox liquid administered every 4 hours (test treatment; 4 doses of Maalox in total; cilansetron was administered 5 minutes after the first dose of Maalox). Both cilansetron treatments were administered under fasted conditions.

Cc1nccn1C[C@H]1CCc2c(c3cccc4c3n2CCC4)C1=O [Cilansetron, (R)-(−)-4,5,6,8,9,10-hexahydro-10-[(2-methyl-1H-imidazol-1-yl)methyl]-11H-pyrido-[3,2,1-jk]-carbazol-11-one]
fraction unbound (clinical [1]): 0.0396 | fraction unbound at 1 h (clinical [1]): 0.0351 | fraction unbound at […] (clinical [1]): 0.034 | Response rate [2]: 21.4% | Pressure first producing esophageal pain (healthy subjects; 4 mg TID oral 7 days): 42.3 (11.3) mmHg | Pressure first producing esophageal sensation (healthy subjects; 4 mg TID oral 7 days): 27.4 (9.6) mmHg | Volume first producing esophageal pain (healthy subjects; 4 mg TID oral 7 days): 14.6 (4.3) mL | Volume first producing esophageal sensation (healthy subjects; 4 mg TID oral 7 days): 5.3 (3.5) mL | Pressure first producing esophageal pain, Differences from Placebo (healthy subjects; 4 mg TID oral 7 days): 3.0 (24.0) mmHg | Pressure first producing esophageal sensation, Differences from Placebo (healthy subjects; 4 mg TID oral 7 days): −2.5 (16.4) mmHg | Volume first producing esophageal pain, Differences from Placebo (healthy subjects; 4 mg TID oral 7 days): 1.4 (4.9) mL | Volume first producing esophageal sensation, Differences from Placebo (healthy subjects; 4 mg TID oral 7 days): −0.3 (4.8) mL | Pressure first producing esophageal pain (healthy subjects; 8 mg TID oral 7 days): 41.0 (12.5) mmHg | Pressure first producing esophageal sensation (healthy subjects; 8 mg TID oral 7 days): 28.4 (10.9) mmHg | Volume first producing esophageal pain (healthy subjects; 8 mg TID oral 7 days): 13.9 (5.8) mL | Volume first producing esophageal sensation (healthy subjects; 8 mg TID oral 7 days): 5.2 (3.6) mL | Pressure first producing esophageal pain, Differences from Placebo (healthy subjects; 8 mg TID oral 7 days): 1.3 (22.5) mmHg | Pressure first producing esophageal sensation, Differences from Placebo (healthy subjects; 8 mg TID oral 7 days): −2.5 (6.9) mmHg | Volume first producing esophageal pain, Differences from Placebo (healthy subjects; 8 mg TID oral 7 days): 0.8 (3.6) mL | Volume first producing esophageal sensation, Differences from Placebo (healthy subjects; 8 mg TID oral 7 days): −0.5 (1.8) mL | AUC(0-inf) (clinical [3]; both): 264 ng·h/mL | AUC(0-t) (clinical [3]; both): 264 ng·h/mL | Cmax (clinical [3]; both): 102 ng/mL | Vd/F (clinical [3]; both): 237 L | half-life (clinical [3]; both): 2.39 h | AUC(0-inf) (clinical [3]; female): 361 ng·h/mL | AUC(0-t) (clinical [3]; female): 360 ng·h/mL | Cmax (clinical [3]; female): 137 ng/mL | Vd/F (clinical [3]; female): 202 L | half-life (clinical [3]; female): 2.97 h | AUC(0-inf) (clinical [3]; male): 159 ng·h/mL | AUC(0-t) (clinical [3]; male): 159 ng·h/mL | Cmax (clinical [3]; male): 63.1 ng/mL | Vd/F (clinical [3]; male): 276 L | half-life (clinical [3]; male): 1.75 h
